This is an account of results in PMC3525792 (Bioorganic & medicinal chemistry letters, 2012).

Data set [1] can be described thus: fluorescent properties. The data set is classed as physicochemical.
The target in data set [2] is SERT. Particulars: read-out: SERT binding Ki; cited from earlier work.
Substrate in data set [3]: NCCc1ccc(O)c(O)c1
Description: cells, lysate or membranes. To be noted: other: substrate KM, determined in parallel; mean [SE interval].

Take `CCN(CC)c1ccc2c(-c3ccc(S(=O)(=O)NCCCCCC(=O)NCCC(=O)Nc4cccc(-c5ccc6c(c5)COC6(CCCN(C)C)c5ccc(F)cc5)c4)cc3S(=O)(=O)[O-])c3ccc(=[N+](CC)CC)cc-3oc2c1` (stereo not shown) [compound 8]: in data set [1], the maximal emission wavelength is listed as 592 nm and the maximal excitation wavelength was 570 nm.
For the molecule `CN(C)CCCC1(c2ccc(F)cc2)OCc2cc(-c3cccc(N)c3)ccc21` (stereo not shown) [compound 3], the Ki in data set [2] was 10.4 nM.

B1: hDAT (Homo sapiens) (protein)
chain: MSKSKCSVGLMSSVVAPAKEPNAVGPKEVELILVKEQNGVQLTSSTLTNPRQSPVEAQDRETWGKKIDFLLSVIGFAVDLANVWRFPYLCYKNGGGAFLVPYLLFMVIAGMPLFYMELALGQFNREGAAGVWKICPILKGVGFTVILISLYVGFFYNVIIAWALHYLFSSFTTELPWIHCNNSWNSPNCSDAHPGDSSGDSSGLNDTFGTTPAAEYFERGVLHLHQSHGIDDLGPPRWQLTACLVLVIVLLYFSLWKGVKTSGKVVWITATMPYVVLTALLLRGVTLPGAIDGIRAYLSVDFYRLCEASVWIDAATQVCFSLGVGFGVLIAFSSYNKFTNNCYRDAIVTTSINSLTSFSSGFVVFSFLGYMAQKHSVPIGDVAKDGPGLIFIIYPEAIATLPLSSAWAVVFFIMLLTLGIDSAMGGMESVITGLIDEFQLLHRHRELFTLFIVLATFLLSLFCVTNGGIYVFTLLDHFAAGTSILFGVLIEAIGVAWFYGVGQFSDDIQQMTGQRPSLYWRLCWKLVSPCFLLFVVVVSIVTFRPPHYGAYIFPDWANALGWVIATSSMAMVPIYAAYKFCSLPGSFREKLAYAIAPEKDRELVDRGEVRQFTLRHWLKV
For B1, the Km in data set [3] is 1010[909;1120] nM.

As usually defined, the Ki is a dissociation constant, usually derived from enzyme kinetics or from competition with a known ligand.
